Assay results from doi:10.1101/2021.04.08.439011v1 (biorxiv, 2021).

What was measured:
Conditions in all cases: 1 µM; binder
ERK8 = ERK8 (Homo sapiens, UniProt Q8TD08)
MAP3K14 = MAP3K14 (Homo sapiens, UniProt Q99558)
PDGFRB = PDGFRB (Homo sapiens, UniProt P09619)
EPHA1 = EPHA1 (Homo sapiens, UniProt P21709)
WNK1 = WNK1 (Homo sapiens, UniProt Q9H4A3)
BRAF = BRAF (Homo sapiens, UniProt P15056)
FLT3-autoinhibited = FLT3-autoinhibited (Homo sapiens, UniProt P36888)
EGFR(L861Q) = EGFR(L861Q) (Homo sapiens, UniProt P00533, L861Q)
MST3 = MST3 (Homo sapiens, UniProt Q9Y6E0)
SBK1 = SBK1 (Homo sapiens, UniProt Q52WX2)
KIT(L576P) = KIT(L576P) (Homo sapiens, UniProt P10721, L576P)
SGK3 = SGK3 (Homo sapiens, UniProt Q96BR1)
PRKCH = PRKCH (Homo sapiens, UniProt P24723)
TIE2 = TIE2 (Homo sapiens, UniProt Q02763)
YANK2 = YANK2 (Homo sapiens, UniProt Q9NY57)
S6K1 = S6K1 (Homo sapiens, UniProt P23443)
CAMK1D = CAMK1D (Homo sapiens, UniProt Q8IU85)
FLT3(K663Q) = FLT3(K663Q) (Homo sapiens, UniProt P36888, K663Q)
WEE2 = WEE2 (Homo sapiens, UniProt P0C1S8)
TSSK1B = TSSK1B (Homo sapiens, UniProt Q9BXA7)
ADCK4 = ADCK4 (Homo sapiens, UniProt Q96D53)
MEK4 = MEK4 (Homo sapiens, UniProt P45985)
PIK3CA(M1043I) = PIK3CA(M1043I) (Homo sapiens, UniProt P42336, M1043I)
MAK = MAK (Homo sapiens, UniProt P20794)
RIOK1 = RIOK1 (Homo sapiens, UniProt Q9BRS2)
MAP4K4 = MAP4K4 (Homo sapiens, UniProt O95819)
LCK = LCK (Homo sapiens, UniProt P06239)
AKT1 = AKT1 (Homo sapiens, UniProt P31749)
INSRR = INSRR (Homo sapiens, UniProt P14616)
CIT = CIT (Homo sapiens, UniProt O14578)

SBK1, sequence (Q52WX2 whole entry): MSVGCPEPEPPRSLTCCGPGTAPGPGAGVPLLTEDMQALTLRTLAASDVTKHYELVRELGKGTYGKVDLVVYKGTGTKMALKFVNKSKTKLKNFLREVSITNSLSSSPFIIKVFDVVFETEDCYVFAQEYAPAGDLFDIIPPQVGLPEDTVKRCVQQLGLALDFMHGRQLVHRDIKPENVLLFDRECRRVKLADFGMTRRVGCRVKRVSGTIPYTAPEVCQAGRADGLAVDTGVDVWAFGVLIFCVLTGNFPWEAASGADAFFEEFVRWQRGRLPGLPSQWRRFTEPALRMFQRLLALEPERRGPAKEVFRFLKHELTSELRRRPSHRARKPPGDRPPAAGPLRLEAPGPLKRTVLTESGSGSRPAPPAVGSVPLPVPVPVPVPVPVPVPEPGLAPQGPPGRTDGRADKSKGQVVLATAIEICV
EPHA1, sequence (P21709 whole entry): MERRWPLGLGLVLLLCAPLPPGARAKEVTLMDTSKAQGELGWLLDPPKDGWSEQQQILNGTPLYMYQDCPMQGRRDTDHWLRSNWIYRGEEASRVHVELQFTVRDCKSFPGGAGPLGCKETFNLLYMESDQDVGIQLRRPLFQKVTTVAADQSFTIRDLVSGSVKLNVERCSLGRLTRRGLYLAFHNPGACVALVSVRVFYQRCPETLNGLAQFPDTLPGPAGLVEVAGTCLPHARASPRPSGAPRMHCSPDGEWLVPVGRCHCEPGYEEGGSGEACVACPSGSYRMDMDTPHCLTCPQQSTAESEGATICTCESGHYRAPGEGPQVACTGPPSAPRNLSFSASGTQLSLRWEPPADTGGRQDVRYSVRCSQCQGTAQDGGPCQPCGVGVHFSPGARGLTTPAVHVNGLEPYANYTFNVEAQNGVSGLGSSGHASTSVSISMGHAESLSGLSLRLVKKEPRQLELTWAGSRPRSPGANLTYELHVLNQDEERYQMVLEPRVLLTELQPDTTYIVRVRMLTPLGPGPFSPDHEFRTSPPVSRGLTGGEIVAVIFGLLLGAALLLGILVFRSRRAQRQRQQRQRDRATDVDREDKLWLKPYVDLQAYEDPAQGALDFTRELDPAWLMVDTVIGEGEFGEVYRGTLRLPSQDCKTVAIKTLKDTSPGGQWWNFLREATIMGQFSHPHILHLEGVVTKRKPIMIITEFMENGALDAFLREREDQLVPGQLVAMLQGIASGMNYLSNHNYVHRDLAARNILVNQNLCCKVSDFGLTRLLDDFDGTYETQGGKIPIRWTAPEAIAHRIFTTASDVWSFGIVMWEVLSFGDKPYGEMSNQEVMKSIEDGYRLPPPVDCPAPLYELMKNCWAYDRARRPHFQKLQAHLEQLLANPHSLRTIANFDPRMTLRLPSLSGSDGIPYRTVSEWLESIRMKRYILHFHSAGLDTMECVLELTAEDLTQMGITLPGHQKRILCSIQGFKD
INSRR, sequence (P14616 whole entry): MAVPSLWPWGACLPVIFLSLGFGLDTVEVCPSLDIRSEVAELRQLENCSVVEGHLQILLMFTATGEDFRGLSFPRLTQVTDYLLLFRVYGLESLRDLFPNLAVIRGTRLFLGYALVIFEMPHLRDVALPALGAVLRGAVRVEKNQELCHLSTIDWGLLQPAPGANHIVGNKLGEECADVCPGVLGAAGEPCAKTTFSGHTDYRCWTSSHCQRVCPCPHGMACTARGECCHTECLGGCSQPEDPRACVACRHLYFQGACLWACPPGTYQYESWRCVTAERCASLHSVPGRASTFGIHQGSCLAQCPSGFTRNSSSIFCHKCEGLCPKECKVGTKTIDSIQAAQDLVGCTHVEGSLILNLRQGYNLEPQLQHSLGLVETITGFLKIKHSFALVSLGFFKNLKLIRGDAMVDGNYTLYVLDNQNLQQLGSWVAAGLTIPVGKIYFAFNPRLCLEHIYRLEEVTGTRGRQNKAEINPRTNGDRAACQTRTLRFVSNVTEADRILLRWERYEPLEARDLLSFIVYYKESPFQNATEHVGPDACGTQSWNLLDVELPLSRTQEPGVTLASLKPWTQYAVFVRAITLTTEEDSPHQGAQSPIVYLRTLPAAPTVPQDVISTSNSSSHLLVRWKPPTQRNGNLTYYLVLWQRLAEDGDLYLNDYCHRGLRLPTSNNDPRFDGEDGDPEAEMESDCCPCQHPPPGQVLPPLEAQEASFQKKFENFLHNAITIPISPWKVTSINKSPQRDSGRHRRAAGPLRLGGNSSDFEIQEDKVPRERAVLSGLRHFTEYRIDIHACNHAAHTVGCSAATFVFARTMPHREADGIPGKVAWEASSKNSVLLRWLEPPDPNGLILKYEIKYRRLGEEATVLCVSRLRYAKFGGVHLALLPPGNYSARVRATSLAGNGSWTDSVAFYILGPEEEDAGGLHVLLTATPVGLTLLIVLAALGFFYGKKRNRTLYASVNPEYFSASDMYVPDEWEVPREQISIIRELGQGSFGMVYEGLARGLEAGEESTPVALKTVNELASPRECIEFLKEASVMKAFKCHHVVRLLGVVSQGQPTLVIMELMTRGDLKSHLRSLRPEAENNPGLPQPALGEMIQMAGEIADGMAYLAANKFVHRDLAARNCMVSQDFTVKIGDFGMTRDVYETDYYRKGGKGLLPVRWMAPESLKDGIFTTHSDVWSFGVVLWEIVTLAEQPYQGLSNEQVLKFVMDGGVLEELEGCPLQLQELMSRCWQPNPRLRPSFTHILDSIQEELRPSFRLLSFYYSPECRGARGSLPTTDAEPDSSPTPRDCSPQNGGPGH
MST3, sequence (Q9Y6E0 whole entry): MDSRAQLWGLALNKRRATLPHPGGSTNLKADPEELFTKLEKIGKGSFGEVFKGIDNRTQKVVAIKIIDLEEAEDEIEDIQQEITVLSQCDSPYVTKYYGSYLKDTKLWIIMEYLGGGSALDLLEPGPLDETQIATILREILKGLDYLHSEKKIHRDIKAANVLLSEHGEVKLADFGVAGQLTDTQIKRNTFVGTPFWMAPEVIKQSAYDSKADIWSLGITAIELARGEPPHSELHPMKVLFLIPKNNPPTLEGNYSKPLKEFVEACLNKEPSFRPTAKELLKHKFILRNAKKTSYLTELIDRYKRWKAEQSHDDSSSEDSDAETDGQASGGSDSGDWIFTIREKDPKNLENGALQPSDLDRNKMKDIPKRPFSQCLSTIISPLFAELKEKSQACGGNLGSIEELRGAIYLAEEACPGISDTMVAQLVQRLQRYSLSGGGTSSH
S6K1, sequence (P23443 whole entry): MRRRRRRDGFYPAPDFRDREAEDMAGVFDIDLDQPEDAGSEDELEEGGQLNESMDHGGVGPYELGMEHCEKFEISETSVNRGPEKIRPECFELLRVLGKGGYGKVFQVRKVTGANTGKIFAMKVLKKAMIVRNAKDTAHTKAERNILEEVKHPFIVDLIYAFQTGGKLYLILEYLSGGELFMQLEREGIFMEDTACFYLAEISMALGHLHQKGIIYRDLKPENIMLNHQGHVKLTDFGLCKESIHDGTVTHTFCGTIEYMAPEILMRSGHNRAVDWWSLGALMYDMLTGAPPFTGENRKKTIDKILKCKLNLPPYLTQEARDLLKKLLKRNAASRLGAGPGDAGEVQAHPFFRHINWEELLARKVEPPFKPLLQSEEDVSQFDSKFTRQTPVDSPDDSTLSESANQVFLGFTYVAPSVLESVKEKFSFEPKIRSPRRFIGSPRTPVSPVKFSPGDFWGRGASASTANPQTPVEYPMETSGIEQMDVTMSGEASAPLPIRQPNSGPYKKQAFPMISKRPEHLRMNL
AKT1, sequence (P31749 whole entry): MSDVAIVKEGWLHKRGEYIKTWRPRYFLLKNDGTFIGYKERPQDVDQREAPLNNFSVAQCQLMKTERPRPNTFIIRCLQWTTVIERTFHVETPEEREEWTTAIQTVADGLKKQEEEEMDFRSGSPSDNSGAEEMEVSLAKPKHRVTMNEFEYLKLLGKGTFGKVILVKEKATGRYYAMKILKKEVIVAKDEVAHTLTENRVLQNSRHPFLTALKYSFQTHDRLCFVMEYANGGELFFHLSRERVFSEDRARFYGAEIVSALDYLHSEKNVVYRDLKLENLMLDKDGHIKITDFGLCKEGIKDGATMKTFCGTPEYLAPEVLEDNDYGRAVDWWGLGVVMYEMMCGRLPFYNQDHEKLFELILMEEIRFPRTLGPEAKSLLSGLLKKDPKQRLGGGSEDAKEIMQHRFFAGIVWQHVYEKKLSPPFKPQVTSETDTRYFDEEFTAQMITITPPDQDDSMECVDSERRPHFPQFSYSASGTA
ADCK4, sequence (Q96D53 whole entry): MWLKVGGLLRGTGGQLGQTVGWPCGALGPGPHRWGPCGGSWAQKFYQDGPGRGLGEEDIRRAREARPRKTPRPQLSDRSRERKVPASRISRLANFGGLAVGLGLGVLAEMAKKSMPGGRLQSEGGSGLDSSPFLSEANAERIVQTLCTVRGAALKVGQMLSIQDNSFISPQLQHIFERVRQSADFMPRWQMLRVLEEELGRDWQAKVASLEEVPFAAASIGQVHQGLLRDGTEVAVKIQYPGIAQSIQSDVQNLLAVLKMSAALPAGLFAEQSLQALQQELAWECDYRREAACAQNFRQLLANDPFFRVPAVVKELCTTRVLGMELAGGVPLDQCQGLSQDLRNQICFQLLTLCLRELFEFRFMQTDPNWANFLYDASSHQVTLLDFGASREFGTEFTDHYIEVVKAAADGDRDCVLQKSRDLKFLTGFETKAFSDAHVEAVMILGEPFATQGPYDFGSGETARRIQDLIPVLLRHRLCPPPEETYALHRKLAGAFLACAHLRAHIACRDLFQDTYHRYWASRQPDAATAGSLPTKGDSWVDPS

Compound: CNc1ncc2cc(-c3ccc(-c4cccc(C)n4)cc3Cl)c(=O)n(C[C@H]3OC[C@H](N)CO3)c2n1 [compound 6, G-5555]
- Percent Control (ERK8): 100%
- Percent Control (MAP3K14): 100%
- Percent Control (PDGFRB): 84%
- Percent Control (EPHA1): 34%
- Percent Control (WNK1): 69%
- Percent Control (BRAF): 100%
- Percent Control (FLT3-autoinhibited): 100%
- Percent Control (EGFR(L861Q)): 100%
- Percent Control (MST3): 1.7%
- Percent Control (SBK1): 100%
- Percent Control (KIT(L576P)): 100%
- Percent Control (SGK3): 60%
- Percent Control (PRKCH): 78%
- Percent Control (TIE2): 52%
- Percent Control (YANK2): 0%
- Percent Control (S6K1): 58%
- Percent Control (CAMK1D): 2.5%
- Percent Control (FLT3(K663Q)): 100%
- Percent Control (WEE2): 100%
- Percent Control (TSSK1B): 100%
- Percent Control (ADCK4): 100%
- Percent Control (MEK4): 9.6%
- Percent Control (PIK3CA(M1043I)): 100%
- Percent Control (MAK): 100%
- Percent Control (RIOK1): 100%
- Percent Control (MAP4K4): 100%
- Percent Control (LCK): 11%
- Percent Control (AKT1): 100%
- Percent Control (INSRR): 100%
- Percent Control (CIT): 100%
